Values after ≈ are worked out from the molar mass of the structure shown.
Legend:
Trypanosoma cruzi = assay: Inhibition of Trypanosoma cruzi; format: functional, organism-based
Leishmania donovani = assay: Inhibition of Leishmania donovani; format: functional, organism-based
[1] = Cytotoxicity against KB cells; format: cell-based; settings: human, read-out: ED50 (the source's name)
[2] = Therapeutic index, ratio of IC50 for Leishmania donovani to ED50 for KB cells; format: cell-based; settings: human, read-out: TI
[3] = Therapeutic index, ratio of IC50 for Trypanosoma cruzi to ED50 for KB cells; format: cell-based; settings: human, read-out: TI

Row | SMILES | IC50 (Trypanosoma cruzi) | IC50 (Leishmania donovani) | CC50 [1] | selectivity ratio [2] | selectivity ratio [3]
1 | COC(=O)N1[C@@H]2C=C[C@@](OC)(C(=O)c3c2cc(OC)c(OC)c3OC)N1C(=O)OC | > 71 µM | > 71 µM | > 300 µg/mL |  | 
2 | COc1cc2c(c(OCc3ccc(F)cc3)c1OC)C(=O)[C@]1(OC)C=C[C@H]2N(C(=O)OC(C)C)N1C(=O)OC(C)C | 18 µM | > 52.4 µM | > 300 µg/mL |  | 
3 | COC(=O)N1[C@@H]2C=C[C@@](OC)(C(=O)c3c2cc(OC)c(OC)c3OCc2ccccc2)N1C(=O)OC | > 60.2 µM | > 60.2 µM | > 300 µg/mL |  | 
4 | COC(=O)N1[C@@H]2C=C[C@@](OC)(C(=O)c3c2cc(OC)c(OC)c3OCc2ccc(F)cc2)N1C(=O)OC | > 58.1 µM | > 58.1 µM | 56.6 µg/mL (≈ 110 µM) |  | 
5 | COC(=O)N1[C@@H]2C=C[C@@](OC)(C(=O)c3c2cc(OC)c(OC)c3OCc2ccccc2F)N1C(=O)OC | > 58.1 µM | > 58.1 µM | 137 µg/mL (≈ 266 µM) |  | 
6 | CCCOc1c(OC)c(OC)cc2c1C(=O)[C@]1(OC)C=C[C@H]2N(C(=O)OCC)N1C(=O)OCC | > 62.7 µM | > 62.7 µM | > 300 µg/mL |  | 
7 | CCOc1c(OC)c(OC)cc2c1C(=O)[C@]1(OC)C=C[C@H]2N(C(=O)OC(C)C)N1C(=O)OC(C)C | > 60.9 µM | > 60.9 µM | > 300 µg/mL |  | 
8 | COc1cc2c(c(OCc3ccccc3)c1OC)C(=O)[C@]1(OC)C=C[C@H]2N(C(=O)OC(C)C)N1C(=O)OC(C)C | 12.1 µM | > 54.1 µM | 94 µg/mL (≈ 169 µM) |  | 
9 | COC(=O)N1[C@@H]2C=C[C@@](OC)(C(=O)c3c2cc(OC)c(OC)c3OCc2ccc(OC)cc2)N1C(=O)OC | > 56.8 µM | > 56.8 µM | > 300 µg/mL |  | 
10 | COc1cc2c(c(OCc3ccccc3F)c1OC)C(=O)[C@]1(OC)C=C[C@H]2N(C(=O)OC(C)C)N1C(=O)OC(C)C | 9.5 µM | > 52.4 µM | 109 µg/mL (≈ 190 µM) |  | 
11 | COc1cc2c(c(OCc3ccc(Cl)cc3)c1OC)C(=O)[C@]1(OC)C=C[C@H]2N(C(=O)OC(C)C)N1C(=O)OC(C)C | < 1.9 µM | 47.4 µM | 42 µg/mL (≈ 71.3 µM) |  | 37.6
12 | COc1ccc(COc2c(OC)c(OC)cc3c2C(=O)[C@]2(OC)C=C[C@H]3N(C(=O)OC(C)C)N2C(=O)OC(C)C)cc1 | 9.8 µM | > 51.3 µM | 47.9 µg/mL (≈ 81.9 µM) |  | 
13 | COC(=O)N1[C@@H]2C=C[C@@](OC)(C(=O)c3c2cc(OC)c(OC)c3O)N1C(=O)OC | > 73.5 µM | > 73.5 µM | > 300 µg/mL |  | 
14 | CCCOc1c(OC)c(OC)cc2c1C(=O)[C@]1(OC)C=C[C@H]2N(C(=O)OC)N1C(=O)OC | > 66.6 µM | > 66.6 µM | > 300 µg/mL |  | 
15 | COC(=O)N1[C@@H]2C=C[C@@](OC)(C(=O)c3c2cc(OC)c(OC)c3OCc2ccc(Cl)cc2)N1C(=O)OC | 50.9 µM | > 56.3 µM | 55.9 µg/mL (≈ 105 µM) |  | 
16 | CCCOc1c(OC)c(OC)cc2c1C(=O)[C@]1(OC)C=C[C@H]2N(C(=O)OC(C)C)N1C(=O)OC(C)C | 42.3 µM | > 59.2 µM | 299 µg/mL (≈ 590 µM) |  | 
17 | CCCCOc1c(OC)c(OC)cc2c1C(=O)[C@]1(OC)C=C[C@H]2N(C(=O)OC(C)C)N1C(=O)OC(C)C | 23.4 µM | > 57.6 µM | 22.1 µg/mL (≈ 42.5 µM) |  | 
18 | CCCCOc1c(OC)c(OC)cc2c1C(=O)[C@]1(OC)C=C[C@H]2N(C(=O)OC)N1C(=O)OC | 57.4 µM | > 64.6 µM | > 300 µg/mL |  | 
19 | COc1cc2c(c(O)c1OC)C(=O)[C@]1(OC)C=C[C@H]2N(C(=O)OC(C)C)N1C(=O)OC(C)C | > 64.6 µM | > 64.6 µM | > 300 µg/mL |  | 
20 | O=C(Cn1ccnc1[N+](=O)[O-])NCc1ccccc1 [BENZNIDAZOLE] | 8.7 µM |  |  |  | 

Second part, led by results:

Row | IC50 (Trypanosoma cruzi) | IC50 (Leishmania donovani) | SMILES | CC50 [1] | selectivity ratio [2] | selectivity ratio [3]
21 | > 68.8 µM | > 68.8 µM | CCOc1c(OC)c(OC)cc2c1C(=O)[C@]1(OC)C=C[C@H]2N(C(=O)OC)N1C(=O)OC | > 300 µg/mL |  | 
22 | > 64.6 µM | > 64.6 µM | CCOC(=O)N1[C@@H]2C=C[C@@](OC)(C(=O)c3c2cc(OC)c(OC)c3OCC)N1C(=O)OCC | > 300 µg/mL |  | 
23 | 54.1 µM | > 57 µM | CCOC(=O)N1[C@@H]2C=C[C@@](OC)(C(=O)c3c2cc(OC)c(OC)c3OCc2ccccc2)N1C(=O)OCC | 215 µg/mL (≈ 409 µM) |  | 
24 | 51.3 µM | > 55.1 µM | CCOC(=O)N1[C@@H]2C=C[C@@](OC)(C(=O)c3c2cc(OC)c(OC)c3OCc2ccc(F)cc2)N1C(=O)OCC | 51.8 µg/mL (≈ 95.1 µM) |  | 
25 | 83.8 µM | > 53.5 µM | CCOC(=O)N1[C@@H]2C=C[C@@](OC)(C(=O)c3c2cc(OC)c(OC)c3OCc2ccc(Cl)cc2)N1C(=O)OCC | 99.9 µg/mL (≈ 178 µM) |  | 
26 | > 53.9 µM | 9.9 µM | CCOC(=O)N1[C@@H]2C=C[C@@](OC)(C(=O)c3c2cc(OC)c(OC)c3OCc2ccc(OC)cc2)N1C(=O)OCC | 63.1 µg/mL (≈ 113 µM) |  | 
27 | > 62.7 µM | > 62.7 µM | COc1cc2c(c(OC)c1OC)C(=O)[C@]1(OC)C=C[C@H]2N(C(=O)OC(C)C)N1C(=O)OC(C)C | > 300 µg/mL |  | 
28 | 54.1 µM | 8.6 µM | CCOC(=O)N1[C@@H]2C=C[C@@](OC)(C(=O)c3c2cc(OC)c(OC)c3OCc2ccccc2F)N1C(=O)OCC | 99.7 µg/mL (≈ 183 µM) | 21.3 | 
29 | > 60.9 µM | > 60.9 µM | CCCCOc1c(OC)c(OC)cc2c1C(=O)[C@]1(OC)C=C[C@H]2N(C(=O)OCC)N1C(=O)OCC | 76 µg/mL (≈ 154 µM) |  | 
